Data on one molecule can be found in PMC7403668, “Intellectual disability‐associated gene ftsj1 is responsible for 2′‐O‐methylation of specific tRNAs” (EMBO Reports, 2020).

One assay has as its target T1, FTSJ1-WDR6 (Homo sapiens, UniProt Q9UET6).
T1 construct: mixture of FTSJ1 (C-terminal His6, High Five cells) and WDR6 (N-terminal GST, Sf9 cells), purified separately; binary complex; with tRNA (34-2'-O)-methyltransferase regulator WDR6
T1 sequence (Q9UET6 1-327 isoform Q9UET6-2): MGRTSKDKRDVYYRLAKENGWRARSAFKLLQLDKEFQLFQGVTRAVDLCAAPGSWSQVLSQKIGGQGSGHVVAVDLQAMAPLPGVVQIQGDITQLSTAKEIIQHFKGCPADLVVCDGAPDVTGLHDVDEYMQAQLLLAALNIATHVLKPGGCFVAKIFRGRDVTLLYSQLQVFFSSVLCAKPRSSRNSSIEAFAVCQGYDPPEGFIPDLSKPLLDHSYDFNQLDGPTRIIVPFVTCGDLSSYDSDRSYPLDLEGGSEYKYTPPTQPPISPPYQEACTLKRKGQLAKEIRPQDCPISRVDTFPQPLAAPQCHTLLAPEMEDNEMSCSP
T1 sequence (Q9NNW5 1-1121 partner): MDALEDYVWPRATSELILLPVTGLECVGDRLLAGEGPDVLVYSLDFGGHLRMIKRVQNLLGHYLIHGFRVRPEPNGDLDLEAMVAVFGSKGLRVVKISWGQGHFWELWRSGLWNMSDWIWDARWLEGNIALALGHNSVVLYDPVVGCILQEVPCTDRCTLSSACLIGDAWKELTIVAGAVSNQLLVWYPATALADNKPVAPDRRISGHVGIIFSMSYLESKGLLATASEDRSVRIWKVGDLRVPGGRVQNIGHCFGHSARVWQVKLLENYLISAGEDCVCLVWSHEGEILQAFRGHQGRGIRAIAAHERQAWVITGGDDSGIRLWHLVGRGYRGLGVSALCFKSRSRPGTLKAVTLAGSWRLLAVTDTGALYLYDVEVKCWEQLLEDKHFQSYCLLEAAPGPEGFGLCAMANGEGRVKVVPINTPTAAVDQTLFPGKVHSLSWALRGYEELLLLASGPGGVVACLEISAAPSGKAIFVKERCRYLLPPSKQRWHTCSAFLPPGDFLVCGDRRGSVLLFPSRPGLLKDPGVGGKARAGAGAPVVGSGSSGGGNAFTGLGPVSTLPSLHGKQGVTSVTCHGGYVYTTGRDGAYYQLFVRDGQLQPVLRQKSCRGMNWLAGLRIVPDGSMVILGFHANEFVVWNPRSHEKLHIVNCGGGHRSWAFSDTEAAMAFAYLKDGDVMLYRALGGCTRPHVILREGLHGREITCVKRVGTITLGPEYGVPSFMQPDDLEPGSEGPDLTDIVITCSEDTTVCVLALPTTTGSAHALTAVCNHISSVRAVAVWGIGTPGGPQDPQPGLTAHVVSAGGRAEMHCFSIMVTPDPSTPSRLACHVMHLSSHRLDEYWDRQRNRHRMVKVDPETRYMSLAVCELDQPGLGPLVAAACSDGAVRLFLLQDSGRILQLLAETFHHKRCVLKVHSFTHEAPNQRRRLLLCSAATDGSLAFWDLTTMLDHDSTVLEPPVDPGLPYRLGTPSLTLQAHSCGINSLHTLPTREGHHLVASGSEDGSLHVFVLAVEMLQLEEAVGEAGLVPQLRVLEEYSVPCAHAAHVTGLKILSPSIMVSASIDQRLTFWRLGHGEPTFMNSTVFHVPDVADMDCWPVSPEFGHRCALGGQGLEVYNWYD
In words: tRNA […]'-O-methyl transfer, UPLC-MS/MS of Gm34. The class given is biochemical. To be noted: methyl donor, 100 μM SAM; co-substrate 5 μM tRNAPhe(GAA) from ftsj1 KO cells or with m1G37; 10 mM MgCl2, pH 7.5, 37°C, 2 h.

The next assay addresses T2, FTSJ1 (FTSJ1-His) (Homo sapiens, UniProt Q9UET6).
T2 construct: full-length, C-terminal His6-tag kept, baculovirus/High Five insect cells; cDNA from HeLa RNA; 327 residues as printed
T2 sequence (Q9UET6 1-327 isoform Q9UET6-2): T1 sequence (Q9UET6 1-327 isoform Q9UET6-2)
Put plainly: isothermal titration calorimetry (iTC200), one-site model. The class given is binding. (In general: In ITC the heat of successive injections is recorded.)

A word on the Kd: it is the equilibrium constant for the complex coming apart. A higher Kd goes with a looser complex. On to `C[S+](CC[C@H](N)C(=O)O)C[C@H]1O[C@@H](n2cnc3c(N)ncnc32)[C@H](O)[C@@H]1O` (some centres unmarked) [SAM], for which, at FTSJ1-WDR6, the “tRNA 2'-O-methyl transfer, UPLC-MS/MS of Gm34” value is on record as “robust Gm formation was detected after incubation with FTSJ1‐WDR6”. Moreover, the Kd at FTSJ1 (FTSJ1-His) is around 4 µM.
